Test results as given in patent publication US20030055070A1, “Phosphodiesterase type 5 (PDE5) inhibitors for the treatment of selective serotonin reuptake inhibitor (SSR) induced sexual dysfunction” (priority 1999, published 2003).

Tests used:
men with ED = experiment: Retrospective subanalysis of 10 double-blind, placebo-controlled sildenafil citrate studies, IIEF questionnaire; patients without SSRIs; type: in vivo, human
Protocol: (§1) A retrospective analysis of combined data from 10 Phase II/III double-blind, placebo-controlled, fixed- and flexible-dose trials identified a subgroup of men with ED who were receiving 5-200 mg of sildenafil citrate (S) or placebo (P) and taking concomitant SSRIs. Studies of sildenafil citrate in various populations have been reported. For example, Goldstein et al. report the results of two sildenafil citrate studies in men. In one study 532 men were treated with oral sildenafil citrate (25, 50 or 100 mg) or placebo over 24 weeks to study dose-response. In the second study 329 men were treated with sildenafil citrate or placebo with dose escalation to 100 mg based on efficacy and tolerance. Additional studies may be found in the following references: Derry et al. (1998), Dinsmore et al. (1999), Goldstein et al. (1998), Padma-Nathan et al. (1998) and Rendell et al. (1999). Analysis of efficacy (ANCOVA) included responses to several questions including question 9 (Q9; frequency of ejaculation) and question 10 (Q10; frequency of orgasm) of the International Index of Erectile Function. In the International Index of Erectile Function, sexual activity includes intercourse, caressing, foreplay and masturbation; sexual intercourse is defined as vaginal penetration of a partner by the respondent; sexual stimulation includes situations like foreplay with a partner, looking at erotic pictures, etc.; ejaculation: the ejection of semen from the penis (or the feeling of this). Question 9 is, “Over the past 4 weeks, when you had sexual stimulation or intercourse how often did you ejaculate?” Question 10 is, “Over the past 4 weeks, when you had sexual stimulation or intercourse how often did you have the feeling of orgasm (with or without ejaculation)? Scores are based on a scale from 1 (almost never or never) to 5 (almost always or always), with 0 representing “No sexual stimulation/intercourse.” Each question was scored from 0 to 5, with lower scores indicating greater sexual dysfunction. Results are expressed as mean baseline score's standard error of mean, (±SEM) and mean change from baseline (±SEM) at the end of treatment (6 to 24 weeks).
(§2) This was a retrospective subanalysis of combined data from 10 double-blind, placebo-controlled, fixed- and flexible-dose studies with sildenafil citrate for the treatment of ED. The subanalysis was conducted to assess whether treatment with sildenafil citrate can alleviate symptoms of sexual dysfunction in men taking SSRIs. The studies lasted for 6 to 24 weeks and dosing of the study drug ranged from 5 mg to 200 mg of sildenafil citrate or matching placebo. Patients were instructed to take medication approximately 1 hour before anticipated sexual activity but not more than once daily.
(§3) A total of 3414 patients were randomized to treatment. The main inclusion criteria were as follows: Men aged 18 years and older; Clinical diagnosis of ED of more than 6 months' duration; Stable relationship with a female partner for at least 6 months prior to the study; and written informed consent. The main exclusion criteria were as follows: Penile anatomical deformities; Major illness or uncontrolled psychiatric disorder; Concomitant treatment with nitrates or nitric oxide donors, estrogens, androgens, or anticoagulants. Other treatments for sexual dysfunction were not allowed during the study.
Efficacy was assessed at the end of treatment (6 to 24 weeks) by responses to the validated 15-item International Index of Erectile Function (IIEF) questionnaire. Rosen et al. (1997) “The International Index of Erectile Function (IIEF): a Multidimensional Scale for Assessment of Erectile Dysfunction,” Urology 49:822-830. Responses were graded on a scale of 1 (“almost never/never”) to 5 (“almost always/always”), with a score of 0 indicating no sexual activity. Efficacy results were evaluated using analysis of covariance (ANCOVA) and were expressed as mean scores.

[1] = test system: men with ED taking concomitant SSRIs; experiment: Retrospective subanalysis of 10 double-blind, placebo-controlled sildenafil citrate studies, IIEF questionnaire; patients taking concomitant SSRIs; type: in vivo, human
Protocol: as §1, §2, §3
Efficacy was assessed at the end of treatment (6 to 24 weeks) by responses to the validated 15-item International Index of Erectile Function (IIEF) questionnaire. Rosen et al. (1997) “The International Index of Erectile Function (IIEF): a Multidimensional Scale for Assessment of Erectile Dysfunction,” Urology 49:822-830. Responses were graded on a scale of 1 (“almost never/never”) to 5 (“almost always/always”), with a score of 0 indicating no sexual activity. Efficacy results were evaluated using analysis of covariance (ANCOVA) and were expressed as mean scores. […]

[2] = test system: SSRI induced sexual dysfunction in men and women; conditions: nine men, five women; twelve on SSRIs, two on mirtazapine; all patients; cited from earlier work
[3] = test system: SSRI induced sexual dysfunction; conditions: four patients (two men, two women); all reported; cited from earlier work
[4] = test system: SSRI-induced sexual side effects; conditions: case studies of patients taking SSRIs; cited from earlier work
[5] = no SSRI, end of treatment (6 to 24 weeks), 5-200 mg, scale 0-5
[6] = no SSRI, p<0.0001 versus placebo
[7] = without SSRIs, 5-200 mg, end of treatment (6 to 24 weeks), scale 0-5
[8] = without SSRIs, baseline, scale 0-5
[9] = with SSRIs, 5-200 mg, end of treatment (6 to 24 weeks), scale 0-5
[10] = with SSRIs, baseline, scale 0-5

CCCc1nn(C)c2c(=O)[nH]c(-c3cc(S(=O)(=O)N4CCN(C)CC4)ccc3OCC)nc12.O=C(O)CC(O)(CC(=O)O)C(=O)O [Sildenafil citrate, 1-[[3-(6,7-dihydro-1-methyl-7-oxo-3-propyl-1H-pyrazolo[4,3-d]pyrimidin-5-yl)-4-ethoxyphenyl]sulfonyl]-4-methylpiperazine citrate]
Improvement of score, erection confidence (Question 15) (men with ED; no SSRI, baseline to endpoint): 76% | Improvement of score, erection firmness (Question 2) (men with ED; no SSRI, baseline to endpoint): 78% | Improvement of score, erection frequency (Question 1) (men with ED; no SSRI, baseline to endpoint): 60% | Improvement of score, maintenance ability (Question 5) (men with ED; no SSRI, baseline to endpoint): 117% | Increase of mean score, intercourse enjoyment (Question 8) (men with ED; no SSRI, baseline to endpoint): 70% | Increase of mean score, intercourse frequency (Question 6) (men with ED; no SSRI, baseline to endpoint): 57% | Increase of mean score, intercourse satisfaction (Question 7) (men with ED; no SSRI, baseline to endpoint): 93% | Increase of mean score, overall satisfaction with sex life (Question 13) (men with ED; no SSRI, baseline to endpoint): 68% | Increase of mean score, satisfaction with the relationship (Question 14) (men with ED; no SSRI, baseline to endpoint): 40% | IIEF Question 1 erection frequency, baseline mean score (men with ED; no SSRI, baseline, scale 0-5): 2.27 ± 0.04 | IIEF Question 2 erection firmness, baseline mean score (men with ED; no SSRI, baseline, scale 0-5): 1.97 ± 0.03 | IIEF Question 5 maintenance ability, baseline mean score (men with ED; no SSRI, baseline, scale 0-5): 1.54 ± 0.03 | IIEF Question 6 intercourse frequency, baseline mean score (men with ED; no SSRI, baseline, scale 0-5): 2.00 ± 0.03 | IIEF Question 7 intercourse satisfaction, baseline mean score (men with ED; no SSRI, baseline, scale 0-5): 1.75 ± 0.03 | IIEF Question 8 intercourse enjoyment, baseline mean score (men with ED; no SSRI, baseline, scale 0-5): 1.86 ± 0.03 | IIEF Question 13 overall satisfaction, baseline mean score (men with ED; no SSRI, baseline, scale 0-5): 2.00 ± 0.02 | IIEF Question 14 relationship satisfaction, baseline mean score (men with ED; no SSRI, baseline, scale 0-5): 2.63 ± 0.03 | IIEF Question 15 erection confidence, baseline mean score (men with ED; no SSRI, baseline, scale 0-5): 1.76 ± 0.02 | Increase of mean score from mean baseline score, ability to achieve an erection (Question 3) (men with ED; no SSRI, end of treatment): 80% | Increase of mean score from mean baseline score, ability to maintain an erection (Question 4) (men with ED; no SSRI, end of treatment): 107% | IIEF Question 1 erection frequency, endpoint mean score (men with ED; [5]): 3.63 ± 0.04 | IIEF Question 2 erection firmness, endpoint mean score (men with ED; [5]): 3.50 ± 0.04 | IIEF Question 5 maintenance ability, endpoint mean score (men with ED; [5]): 3.35 ± 0.04 | IIEF Question 6 intercourse frequency, endpoint mean score (men with ED; [5]): 3.13 ± 0.03 | IIEF Question 7 intercourse satisfaction, endpoint mean score (men with ED; [5]): 3.38 ± 0.04 | IIEF Question 8 intercourse enjoyment, endpoint mean score (men with ED; [5]): 3.16 ± 0.03 | IIEF Question 13 overall satisfaction, endpoint mean score (men with ED; [5]): 3.36 ± 0.03 | IIEF Question 14 relationship satisfaction, endpoint mean score (men with ED; [5]): 3.68 ± 0.03 | IIEF Question 15 erection confidence, endpoint mean score (men with ED; [5]): 3.10 ± 0.03 | Frequency of ejaculation (Question 9), mean score versus placebo, in words (men with ED; [6]): increased significantly | Frequency of orgasm (Question 10), mean score versus placebo, in words (men with ED; [6]): increased significantly | Important aspects of sexual function, in words (men with ED; patients with ED without concomitant SSRI): significantly improved | IIEF Q9 frequency of ejaculation, mean change from baseline ± SEM (men with ED; [7]): 0.90 ± 0.04 | IIEF Q10 frequency of orgasm, mean change from baseline ± SEM (men with ED; [7]): 0.93 ± 0.04 | IIEF Q9 frequency of ejaculation, mean baseline score ± SEM (men with ED; [8]): 2.74 ± 0.04 | IIEF Q10 frequency of orgasm, mean baseline score ± SEM (men with ED; [8]): 2.65 ± 0.04 | Frequency of orgasm (Question 10), effect versus placebo, in words ([1]; concomitant SSRI, p<0.01 versus placebo, citrate): significantly improved | Frequency of ejaculation (Question 9), effect versus placebo, in words ([1]; concomitant SSRI, p<0.02 versus placebo, citrate): significantly improved | Important aspects of sexual function, in words ([1]; patients with ED with concomitant SSRI): significantly improved | IIEF Q9 frequency of ejaculation, mean change from baseline ± SEM [1, 9]: 1.16 ± 0.25 | IIEF Q10 frequency of orgasm, mean change from baseline ± SEM [1, 9]: 1.34 ± 0.27 | IIEF Q9 frequency of ejaculation, mean baseline score ± SEM [1, 10]: 2.42 ± 0.23 | IIEF Q10 frequency of orgasm, mean baseline score ± SEM [1, 10]: 2.24 ± 0.22 | Sexual functioning, in words [2]: statistically significant improvement | Effect on SSRI induced sexual dysfunction, in words [3]: rapid reversal of SSRI induced sexual dysfunction | Response to treatment, in words [4]: responding well
